These results are taken from US7498309B2, “Pharmaceutical compositions for bioactive peptide agents” (Sangstat Medical Corporation, priority 2003, dated 2009).

Entries after “also recorded” stand apart in the source; their conditions may differ.

In data set [1] the test system is cynomolgus monkeys with chronic and naturally occurring colitis. Put plainly: RDP58 capsule therapy in primates suffering from colitis (stool quality scores). In kind it is in vivo. The conditions noted are these: animal MCY33636; capsule from day 0, treatment extended to day 21.
For data set [2] the test system is unchanged. Described as above. It counts as in vivo. The conditions noted are these: for response to therapy: capsule from day 0. On the procedure: RDP58 oral therapy is believed to have a beneficial effect on resolution of clinical signs of chronic colitis in primates suffering from a naturally occurring colitis like condition. In these studies, RDP58 was administered in aqueous form (i.e., powder dissolved in water) by oral gavage. The objective of the pilot study described in this example was to analyze the effect of administering RDP58 in capsule form to primates suffering from a chronic, naturally occurring, colitis-like condition. Data generated from this study was compared to data obtained from previous studies where RDP58 peptide was administered in aqueous form.
Methods. Four cynomolgus monkeys, with documented clinical histories of chronic and naturally occurring colitis, were selected for the study. All animals were monitored for 7 days before initiating therapy. Animals were dosed with one capsule (approximately 13 mg per capsule) every day, starting on Day 0, for 14 days. A commercially available cat pilling gun was used. Disease activity was monitored using stool quality scores. The scoring system used was the following: 1=Normal; 2=Loose stool; 3=Watery diarrhea; and 4=Bloody diarrhea. Response is defined as an improvement in stool quality score by at least 1 point.
Animals were physically examined twice per day. After 14 days, RDP58 therapy was stopped and animals were monitored for 7 additional days. Stool quality was documented through this period.

Data set [3] in a line: Fill formulation: solubility and dispersion of the peptide in Labrafil M 1944 CS. It counts as physicochemical. The method, then: Fill Formulation. […] The RDP58 peptide was not soluble in Labrafil M 1944 CS, thus a stable suspension of the peptide was made using Colloidal Silicon Dioxide, USP (Aerosil 300) as a suitable dispersing agent. Bench trials were performed to determine the needed quantity of Aerosil 300, which would provide a sufficient viscosity increase to maintain the peptide uniformly suspended for a minimum of 24 hours while allowing the fill formulation to remain flowable or pumpable. The fill formulation for the a 100 mg RDP58 softgel capsule is the following: […]

[4] abbreviates: all animals studied, oral capsule.

With `CCCC[C@@H](NC(=O)[C@H](N)CCCNC(=N)N)C(=O)N[C@H](CCCC)C(=O)N[C@H](CCCC)C(=O)N[C@H](CCCNC(=N)N)C(=O)N[C@H](CCCC)C(=O)N[C@H](CCCC)C(=O)N[C@H](CCCC)C(=O)NCC(=O)N[C@H](Cc1ccc(O)cc1)C(N)=O` [RDP58, NH2-(D)Arg-(D)nL-(D)nL-(D)nL-(D)Arg-(D)nL-(D)nL-(D)nL-Gly-(D)Tyr-NH2], the response to therapy result is “response was immediate” in data set [1], “immediate response” in data set [2] (animal 33558), “immediate response” in data set [2] (animal MCY33560) and “immediate positive response” in data set [2] (animal MCY33639). For the same molecule, the negative side effects result in data set [2] (setting [4]) was “None of the animals studied showed negative side effects”. Besides, the tolerability of dosing entry in data set [2] (setting [4]) was “well tolerated”. Further, the “effect on disease activity / therapeutic response” value in data set [2] (all four animals, one capsule (approximately 13 mg) orally every day for 14 days, stool quality scores) was “positive effects; also recorded: positive therapeutic response”. Besides, the response to re-treatment result in data set [2] (animal 33558, re-treated starting on day 23) was “Response to therapy was immediate”; in data set [2] (animal MCY33639, re-treated on day 23), “immediate positive response”. For the same molecule, the “time animal remained normal after therapy was stopped” value in data set [2] (animal 33558, therapy stopped on day 14) lay within 4 to 5 days. In data set [2] (animal MCY33636), the “duration of normal stool quality” value stood at 8 days. In addition, the “dispersion of the peptide” value in data set [3] (in Labrafil M 1944 CS) is “enhanced dispersion”. The “solubility in Labrafil M 1944 CS” value in data set [3] (suspending agent Labrafil M 1944 CS) was “not soluble”.
